Read-outs that look alike come from different tables or passages of the source.
Key:
EKVK = experiment: NCI-60 in vitro tumor cell screen, EKVK; type: cell-based; details: Homo sapiens, Non-Small Cell Lung Cancer
Experimental: (§1) All the synthesized thiazoles 1a–l, 2a–j, 3a–f and 4a–f were evaluated by the National Cancer Institute (Bethesda MD) for cytotoxicity against the NCI-60 cell line panel using standard protocols. Initially, all derivatives were tested at a single dose (10^−5 M) on the full panel of approximately 60 human tumor cell lines derived from 9 human cancer cell types, that have been grouped in disease sub-panels including leukemia, non-small-cell lung, colon, central nervous system (CNS), melanoma, ovarian, renal, prostate and breast cancers (data not shown). Compounds 1k and 4c were further selected for full evaluation at five concentration levels (10^−4–10^−8 M).
(§2) The antitumor activity of compounds 1k and 4c was given by three parameters for each cell line: GI50 (GI50 is the molar concentration of the compound that inhibits 50% net cell growth), TGI (TGI is the molar concentration of the compound leading to total inhibition of net cell growth), and LC50 (LC50 is the molar concentration of the compound that induces 50% net cell death). The average values of mean graph midpoint (MG_MID) were calculated for each of these parameters.

K-562 = experiment: NCI-60 in vitro tumor cell screen, K-562; type: cell-based; details: Homo sapiens, K562; K-562, Leukemia
Experimental: as §1, §2

NCI-60 cell line panel = experiment: NCI-60 cell line panel, summary over the full panel or subpanel; type: cell-based, human; details: for GI50: Homo sapiens
Experimental: as §1, §2

[1] = system: HCT-116 colorectal carcinoma cells; experiment: MTT viability assay, HCT-116 cells, 24 h; type: cell-based; details: Homo sapiens, 5–100 μM, read-out: GI50 after 24 h treatment
Experimental: Nortopsentin analogues, prepared as described above, were dissolved in dimethyl sulfoxide (DMSO) and then diluted in culture medium to have a DMSO concentration not exceeding 0.1%. HCT-116 and Caco-2 cell lines were purchased from American Type Culture Collection, Rockville, MD, USA and DMEM supplemented with […], […] bovine serum (FBS), penicillin (100 U/mL), streptomycin (100 μg/mL) and gentamicin (5 μg/mL). Cells were maintained in log phase by seeding twice a week at a density of 3 × 10^8 cells/L in humidified 5% CO2 atmosphere, at 37 °C. In all experiments, HCT-116 cells were made quiescent through overnight incubation before treatment with tested compounds or vehicle alone (control cells), while Caco-2 cells were treated 15 days after confluence, at which time the cells are differentiated in normal intestinal-like cells. […]
Cytotoxic activity of the nortopsentin derivatives 1k and 4c was determined by the colorimetric assay based on the reduction of […] (MTT) to purple formazan by mitochondrial dehydrogenases. […] Cells were incubated 2 h at 37 °C, then medium was discarded by centrifugation, formazan blue formed in the cells dissolved in DMSO, and absorbance measured at 570 nm in a microplate reader (Bio-RAD, Hercules, CA, USA). […] GI50 was calculated by the curve of percent viability vs. concentration. […]

SK-MEL-2 = experiment: NCI-60 in vitro tumor cell screen, SK-MEL-2; type: cell-based; details: Homo sapiens; SK-MEL-2, Melanoma
Experimental: as §1, §2

SNB-75 = experiment: NCI-60 in vitro tumor cell screen, SNB-75; type: cell-based; details: Homo sapiens; SNB-75, CNS Cancer
Experimental: as §1, §2

HCC-2998 = experiment: NCI-60 in vitro tumor cell screen, HCC-2998; type: cell-based; details: Homo sapiens; HCC-2998, Colon Cancer
Experimental: as §1, §2

SF-295 = experiment: NCI-60 in vitro tumor cell screen, SF-295; type: cell-based; details: Homo sapiens; SF-295, CNS Cancer
Experimental: as §1, §2

HOP-92 = experiment: NCI-60 in vitro tumor cell screen, HOP-92; type: cell-based; details: Homo sapiens; HOP-92, Non-Small Cell Lung Cancer
Experimental: as §1, §2

ACHN = experiment: NCI-60 in vitro tumor cell screen, ACHN; type: cell-based; details: Homo sapiens, Renal Cancer
Experimental: as §1, §2

NCI-H226 = experiment: NCI-60 in vitro tumor cell screen, NCI-H226; type: cell-based; details: Homo sapiens; NCI-H226, Non-Small Cell Lung Cancer
Experimental: as §1, §2

OVCAR-3 = experiment: NCI-60 in vitro tumor cell screen, OVCAR-3; type: cell-based; details: Homo sapiens; OVCAR-3, Ovarian Cancer
Experimental: as §1, §2

RPMI-8226 = experiment: NCI-60 in vitro tumor cell screen, RPMI-8226; type: cell-based; details: Homo sapiens; RPMI-8226, Leukemia
Experimental: as §1, §2

OVCAR-5 = experiment: NCI-60 in vitro tumor cell screen, OVCAR-5; type: cell-based; details: Homo sapiens; OVCAR-5, Ovarian Cancer
Experimental: as §1, §2

SF-539 = experiment: NCI-60 in vitro tumor cell screen, SF-539; type: cell-based; details: Homo sapiens; SF-539, CNS Cancer
Experimental: as §1, §2

SW-620 = experiment: NCI-60 in vitro tumor cell screen, SW-620; type: cell-based; details: Homo sapiens; SW-620, Colon Cancer
Experimental: as §1, §2

HL-60(TB) = experiment: NCI-60 in vitro tumor cell screen, HL-60(TB); type: cell-based; details: Homo sapiens, Leukemia
Experimental: as §1, §2

HT29 = experiment: NCI-60 in vitro tumor cell screen, HT29; type: cell-based; details: Homo sapiens, HT-29; HT29, Colon Cancer
Experimental: as §1, §2

M14 = experiment: NCI-60 in vitro tumor cell screen, M14; type: cell-based; details: Homo sapiens; M14, Melanoma
Experimental: as §1, §2

NCI-H23 = experiment: NCI-60 in vitro tumor cell screen, NCI-H23; type: cell-based; details: Homo sapiens; NCI-H23, Non-Small Cell Lung Cancer
Experimental: as §1, §2

A549/ATCC = experiment: NCI-60 in vitro tumor cell screen, A549/ATCC; type: cell-based; details: Homo sapiens, Non-Small Cell Lung Cancer
Experimental: as §1, §2

MDA-MB-435 = experiment: NCI-60 in vitro tumor cell screen, MDA-MB-435; type: cell-based; details: Homo sapiens; MDA-MB-435, Melanoma
Experimental: as §1, §2

HS 578T = experiment: NCI-60 in vitro tumor cell screen, HS 578T; type: cell-based; details: Homo sapiens, Breast Cancer
Experimental: as §1, §2

OVCAR-8 = experiment: NCI-60 in vitro tumor cell screen, OVCAR-8; type: cell-based; details: Homo sapiens; OVCAR-8, Ovarian Cancer
Experimental: as §1, §2

CAKI-1 = experiment: NCI-60 in vitro tumor cell screen, CAKI-1; type: cell-based; details: Homo sapiens; CAKI-1, Renal Cancer
Experimental: as §1, §2

PC-3 = experiment: NCI-60 in vitro tumor cell screen, PC-3; type: cell-based; details: Homo sapiens; PC-3, Prostate Cancer
Experimental: as §1, §2

SF-268 = experiment: NCI-60 in vitro tumor cell screen, SF-268; type: cell-based; details: Homo sapiens; SF-268, CNS Cancer
Experimental: as §1, §2

[2] = mean over the NCI full panel, read-out: GI50 mean value
[3] = range over the NCI full panel, read-out: GI50 values against most of the human cell lines (range)

Clc1nccc2c(-c3csc(-c4c[nH]c5ccc(Br)cc45)n3)c[nH]c12 [Compound 4c, 3-[2-(5-Bromo-1H-indol-3-yl)-1,3-thiazol-4-yl]-7-chloro-1H-pyrrolo[2,3-c]pyridine]
GI50 (EKVK): 3.11 µM | GI50 (K-562): 2.73 µM | GI50 (NCI-60 cell line panel; all renal cancer subpanel cell lines, read-out: GI50 range, renal cancer subpanel): 0.93 to 4.16 µM | GI50 (NCI-60 cell line panel; [2]): 2.59 µM | GI50 (NCI-60 cell line panel; [3]): 0.93 to 4.7 µM | percentage of sensitive cell lines out of the total number of cell lines investigated (NCI-60 cell line panel; NCI full panel): 100% | percentage of cell lines with positive LC50 values (NCI-60 cell line panel; NCI full panel, data not shown): 81% | percentage of cell lines with positive TGI values (NCI-60 cell line panel; NCI full panel, data not shown): 98% | GI50 [1]: 13.2 ± 0.95 µM | GI50 (SK-MEL-2): 4.09 µM | GI50 (SNB-75): 2.37 µM | GI50 (HCC-2998): 2.22 µM | GI50 (SF-295): 2.48 µM | GI50 (HOP-92): 2.43 µM | GI50 (ACHN): 2.02 µM | GI50 (NCI-H226): 2.4 µM | GI50 (OVCAR-3): 3.45 µM | GI50 (RPMI-8226): 4.03 µM | GI50 (OVCAR-5): 3.14 µM | GI50 (SF-539): 1.87 µM | GI50 (SW-620): 1.92 µM | GI50 (HL-60(TB)): 2.64 µM | GI50 (HT29): 2.66 µM | GI50 (M14): 2.22 µM | GI50 (NCI-H23): 2.42 µM | GI50 (A549/ATCC): 3.83 µM | GI50 (MDA-MB-435): 3.43 µM | GI50 (HS 578T): 3.7 µM | GI50 (OVCAR-8): 3.65 µM | GI50 (CAKI-1): 1.96 µM | GI50 (PC-3): 3.86 µM | GI50 (SF-268): 4.06 µM

Cn1cc(-c2csc(-c3c[nH]c4ncccc34)n2)c2cc(Br)cnc21 [Compound 1k, 5-Bromo-1-methyl-3-[2-(1H-pyrrolo[2,3-b]pyridin-3-yl)-1,3-thiazol-4-yl]-1H-pyrrolo[2,3-b]pyridine]
GI50 (EKVK): 1.27 µM | GI50 (K-562): 8.76 µM | GI50 (NCI-60 cell line panel; [2]): 5.26 µM | GI50 (NCI-60 cell line panel; [3]): 0.81 to 27.7 µM | percentage of sensitive cell lines out of the total number of cell lines investigated (NCI-60 cell line panel; NCI full panel): 89% | GI50 [1]: 33.5 ± 2.31 µM | GI50 (SK-MEL-2): 19.8 µM | GI50 (SNB-75): 2.18 µM | GI50 (HCC-2998): > 100 µM | GI50 (SF-295): 3.01 µM | GI50 (HOP-92): 5.03 µM | GI50 (ACHN): 2.35 µM | GI50 (NCI-H226): 1.97 µM | GI50 (OVCAR-3): 2.91 µM | GI50 (RPMI-8226): > 100 µM | GI50 (OVCAR-5): > 100 µM | GI50 (SF-539): 27.7 µM | GI50 (SW-620): 4.46 µM | GI50 (HL-60(TB)): > 100 µM | GI50 (HT29): 6.75 µM | GI50 (M14): 4.06 µM | GI50 (NCI-H23): 2.8 µM | GI50 (A549/ATCC): 2.59 µM | GI50 (MDA-MB-435): 3.17 µM | GI50 (HS 578T): 2.43 µM | GI50 (OVCAR-8): 3.72 µM | GI50 (CAKI-1): 1.56 µM | GI50 (PC-3): 4.35 µM | GI50 (SF-268): 6.01 µM
